Experimental data published in patent EP1953147A1, “HETEROCYCLIC COMPOUND AND MEDICINAL APPLICATION THEREOF” (priority 2005, dated 2007).
Counter-ions that a name gives are not always drawn.

Test system: ΔG/SEAP/HCV E1E2
Assay: Effect of test substance on cell infection with HCV pseudotype virus (SEAP reporter assay in HepG2 cells)
Assay type: cell-based
Details: Hepatitis C virus

Row | Compound | IC50
1 | Cc1cc(C)cc(-c2nn(-c3cc(N4CC[C@H](O)C4)ccc3C(F)(F)F)c(=O)c3c2CCN3)c1 [Example 11, 4-(3,5-dimethyl-phenyl)-6-[5-((S)-3-hydroxy-pyrrolidin-1-yl)-2-trifluoromethyl-phenyl]-1,2,3,6-tetrahydro-pyrrolo[2,3-d]pyridazin-7-one] | < 100 nM
2 | COc1cc(OC)cc(-c2nn(-c3cccc(N4CC[C@H](O)C4)c3)c(=O)c3c2CCN3)c1 [Example 52, 4-(3,5-dimethoxy-phenyl)-6-[3-((S)-3-hydroxy-pyrrolidin-1-yl)-phenyl]-1,2,3,6-tetrahydro-pyrrolo[2,3-d]pyridazin-7-one] | 100 to 10000 nM
3 | COc1cc(C)cc(-c2nn(-c3cc(N4CC[C@@H](O)C4)ccc3C(F)(F)F)c(=O)c3c2CCC3)c1 [Example 23, 2-[5-((R)-3-hydroxy-pyrrolidin-1-yl)-2-trifluoromethyl-phenyl]-4-(3-methoxy-5-methyl-phenyl)-2,5,6,7-tetrahydro-cyclopenta[d]pyridazin-1-one] | < 100 nM
4 | COc1cc(OC)cc(-c2nn(-c3cc(C(=O)O)ccc3C(F)(F)F)c(=O)c3c2CCC3)c1 [Example 1-10, 3-[4-(3,5-dimethoxy-phenyl)-1-oxo-1,5,6,7-tetrahydro-cyclopenta[d]pyridazin-2-yl]-4-trifluoromethyl-benzoic acid] | 100 to 10000 nM
5 | COc1cc(OC)cc(-c2nn(-c3cc(N(C)CCO)ccc3C(F)(F)F)c(=O)c3c2CCC3)c1 [Example 92, 4-(3,5-dimethoxy-phenyl)-2-{5-[(2-hydroxy-ethyl)-methyl-amino]-2-trifluoromethyl-phenyl}-2,5,6,7-tetrahydro-cyclopenta[d]pyridazin-1-one] | < 100 nM
6 | Cc1cc(C)cc(-c2nn(-c3cc(N4CC[C@H](O)C4)ccc3C(F)(F)F)c(=O)c3c2CC(C)N3)c1 (stereo partly drawn) [Example 1-33, 4-(3,5-dimethyl-phenyl)-6-[5-((S)-3-hydroxy-pyrrolidin-1-yl)-2-trifluoromethyl-phenyl]-2-methyl-1,2,3,6-tetrahydro-pyrrolo[2,3-d]pyridazin-7-one] | < 100 nM
7 | COC(=O)c1ccc(C(F)(F)F)c(-n2nc(-c3cc(OC)cc(OC)c3)c3c(c2=O)CCC3)c1 [Example 1-9, methyl 3-[4-(3,5-dimethoxy-phenyl)-1-oxo-1,5,6,7-tetrahydro-cyclopenta[d]pyridazin-2-yl]-4-trifluoromethyl-benzoate] | < 100 nM
8 | CNCCNc1ccc(C(F)(F)F)c(-n2nc(-c3cc(OC)cc(OC)c3)c3c(c2=O)CCC3)c1 [Example 157, 4-(3,5-dimethoxy-phenyl)-2-[5-(2-methylamino-ethylamino)-2-trifluoromethyl-phenyl]-2,5,6,7-tetrahydro-cyclopenta[d]pyridazin-1-one hydrochloride] | 100 to 10000 nM
9 | NC(=O)c1ccc(-c2nn(-c3cc(N4CC[C@H](O)C4)ccc3C(F)(F)F)c(=O)c3c2CCC3)cc1 [Example 99, 4-{3-[5-((S)-3-hydroxy-pyrrolidin-1-yl)-2-trifluoromethyl-phenyl]-4-oxo-4,5,6,7-tetrahydro-3H-cyclopenta[d]pyridazin-1-yl}-benzamide] | 100 to 10000 nM
10 | COc1cc(OC)cc(-c2nn(-c3cc(N4CC[C@H](O)C4)ccc3C(F)(F)F)c(=O)c3c2CCN3C)c1 [Example 54, 4-(3,5-dimethoxy-phenyl)-6-[5-((S)-3-hydroxy-pyrrolidin-1-yl)-2-trifluoromethyl-phenyl]-1-methyl-1,2,3,6-tetrahydro-pyrrolo[2,3-d]pyridazin-7-one] | < 100 nM
11 | COc1cc(OC)cc(-c2nn(-c3cc(NCCc4ccccc4)ccc3C(F)(F)F)c(=O)c3c2CCC3)c1 [Example 136, 4-(3,5-dimethoxy-phenyl)-2-(5-phenethylamino-2-trifluoromethyl-phenyl)-2,5,6,7-tetrahydro-cyclopenta[d]pyridazin-1-one] | < 100 nM
12 | COc1cncc(-c2nn(-c3cc(N4CC[C@H](O)C4)ccc3C(F)(F)F)c(=O)c3c2CCC3)c1 [Example 45, 2-[5-((S)-3-hydroxy-pyrrolidin-1-yl)-2-trifluoromethyl-phenyl]-4-(5-methoxy-pyridin-3-yl)-2,5,6,7-tetrahydro-cyclopenta[d]pyridazin-1-one] | < 100 nM
13 | CCCN(C)c1ccc(C(F)(F)F)c(-n2nc(-c3cc(OC)cc(OC)c3)c3c(c2=O)CCC3)c1 [Example 101, 4-(3,5-dimethoxy-phenyl)-2-[5-(methyl-propylamino)-2-trifluoromethyl-phenyl]-2,5,6,7-tetrahydro-cyclopenta[d]pyridazin-1-one] | 100 to 10000 nM
14 | O=c1c2c(c(-c3cccs3)nn1-c1cc(N3CC[C@H](O)C3)ccc1C(F)(F)F)CCC2 [Example 1-17, 2-[5-((S)-3-hydroxy-pyrrolidin-1-yl)-2-trifluoromethylphenyl]-4-(thiophen-2-yl)-2,5,6,7-tetrahydro-cyclopenta[d]pyridazin-1-one] | < 100 nM
15 | COC(=O)CNc1ccc(C(F)(F)F)c(-n2nc(-c3cc(OC)cc(OC)c3)c3c(c2=O)CCC3)c1 [Example 126, {3-[4-(3,5-dimethoxy-phenyl)-1-oxo-1,5,6,7-tetrahydro-cyclopenta[d]pyridazin-2-yl]-4-trifluoromethyl-phenylamino}-acetic acid methyl ester] | < 100 nM
16 | CNC(=O)CNc1ccc(C(F)(F)F)c(-n2nc(-c3cc(OC)cc(OC)c3)c3c(c2=O)CCC3)c1 [Example 124, 2-{3-[4-(3,5-dimethoxy-phenyl)-1-oxo-1,5,6,7-tetrahydro-cyclopenta[d]pyridazin-2-yl]-4-trifluoromethyl-phenylamino}-N-methyl-acetamide] | < 100 nM
17 | COc1cc(OC)cc(-c2nn(-c3cc(N4CC[C@H](O)C4)ccc3C(F)(F)F)c(=O)c3c2CCN3CC#N)c1 [Example 48, {4-(3,5-dimethoxy-phenyl)-6-[5-((S)-3-hydroxy-pyrrolidin-1-yl)-2-trifluoromethyl-phenyl]-7-oxo-2,3,6,7-tetrahydro-pyrrolo[2,3-d]pyridazin-1-yl}-acetonitrile] | < 100 nM
18 | COc1cc(OC)cc(-c2nn(-c3cc(N4CCC(=O)C4)ccc3C(F)(F)F)c(=O)c3c2CCN3)c1 [Example 25, 4-(3,5-dimethoxy-phenyl)-6-[5-(3-oxo-pyrrolidin-1-yl)-2-trifluoromethyl-phenyl]-1,2,3,6-tetrahydro-pyrrolo[2,3-d]pyridazin-7-one] | < 100 nM
19 | CCC(=O)Nc1ccc(C(F)(F)F)c(-n2nc(-c3cc(OC)cc(OC)c3)c3c(c2=O)CCC3)c1 [Example 57, N-{3-[4-(3,5-dimethoxy-phenyl)-1-oxo-1,5,6,7-tetrahydro-cyclopenta[d]pyridazin-2-yl]-4-trifluoromethyl-phenyl}-propionamide] | < 100 nM
20 | COc1cc(OC)cc(-c2nn(-c3cc(NCC(C)O)ccc3C(F)(F)F)c(=O)c3c2CCC3)c1 (stereo not drawn) [Example 132, 4-(3,5-dimethoxy-phenyl)-2-[5-(2-hydroxy-propylamino)-2-trifluoromethyl-phenyl]-2,5,6,7-tetrahydro-cyclopenta[d]pyridazin-1-one] | < 100 nM
21 | O=c1c2c(c(-c3ccccc3)nn1-c1cc(N3CC[C@H](O)C3)ccc1C(F)(F)F)CCC2 [Example 66, 2-[5-((S)-3-hydroxy-pyrrolidin-1-yl)-2-trifluoromethyl-phenyl]-4-phenyl-2,5,6,7-tetrahydro-cyclopenta[d]pyridazin-1-one] | < 100 nM
22 | COc1cc(OC)cc(-c2nn(-c3cc(C#CCO)ccc3C(F)(F)F)c(=O)c3c2CCC3)c1 [Example 120, 4-(3,5-dimethoxy-phenyl)-2-[5-(3-hydroxy-prop-1-ynyl)-2-trifluoromethyl-phenyl]-2,5,6,7-tetrahydro-cyclopenta[d]pyridazin-1-one] | < 100 nM
23 | COc1ccc(-c2nn(-c3cc(N4CC[C@H](O)C4)ccc3C(F)(F)F)c(=O)c3c2CCC3)cc1 [Example 77, 2-[5-((S)-3-hydroxy-pyrrolidin-1-yl)-2-trifluoromethyl-phenyl]-4-(4-methoxy-phenyl)-2,5,6,7-tetrahydro-cyclopenta[d]pyridazin-1-one] | < 100 nM
24 | COc1cc(OC)cc(-c2nn(-c3cc(N)ccc3C(F)(F)F)c(=O)c3c2CCN3CCO)c1 [Example 1-41, 6-(5-amino-2-trifluoromethyl-phenyl)-4-(3,5-dimethoxy-phenyl)-1-(2-hydroxy-ethyl)-1,2,3,6-tetrahydro-pyrrolo[2,3-d]pyridazin-7-one] | < 100 nM
25 | COc1cc(OC)cc(-c2nn(-c3cc(Nc4ccccc4)ccc3C(F)(F)F)c(=O)c3c2CCC3)c1 [Example 134, 4-(3,5-dimethoxy-phenyl)-2-(5-phenylamino-2-trifluoromethyl-phenyl)-2,5,6,7-tetrahydro-cyclopenta[d]pyridazin-1-one] | 100 to 10000 nM
26 | COc1cc(OC)cc(-c2nn(-c3cc(NCCN(C)C(=O)OC(C)(C)C)ccc3C(F)(F)F)c(=O)c3c2CCC3)c1 [Example 156, (2-{3-[4-(3,5-dimethoxy-phenyl)-1-oxo-1,5,6,7-tetrahydro-cyclopenta[d]pyridazin-2-yl]-4-trifluoromethyl-phenylamino}-ethyl)-methyl-carbamic acid tert-butyl ester] | 100 to 10000 nM
27 | COc1cc(OC)cc(-c2nn(-c3cc(N4CCC(O)C4)ccc3C(F)(F)F)c(=O)c3c2CCN3)c1 (stereo not drawn) [Example 18, 4-(3,5-dimethoxyphenyl)-6-[5-(3-hydroxy-pyrrolidin-1-yl)-2-trifluoromethyl-phenyl]-1,2,3,6-tetrahydro-pyrrolo[2,3-d]pyridazin-7-one] | < 100 nM
28 | COc1cc(OC)cc(-c2nn(-c3cc(N4CCCC4)ccc3C(F)(F)F)c(=O)c3c2CCN3)c1 [Example 37, 4-(3,5-dimethoxy-phenyl)-6-(5-pyrrolidin-1-yl-2-trifluoromethyl-phenyl)-1,2,3,6-tetrahydro-pyrrolo[2,3-d]pyridazin-7-one] | < 100 nM
29 | COc1cc(OC)cc(-c2nn(-c3cc(NCC(=O)O)ccc3C(F)(F)F)c(=O)c3c2CCC3)c1 [Example 97, {3-[4-(3,5-dimethoxy-phenyl)-1-oxo-1,5,6,7-tetrahydro-cyclopenta[d]pyridazin-2-yl]-4-trifluoromethyl-phenylamino}-acetic acid] | < 100 nM
30 | COc1cc(OC)cc(-c2nn(-c3cc(CO)ccc3C(F)(F)F)c(=O)c3c2CCC3)c1 [Example 149, 4-(3,5-dimethoxy-phenyl)-2-(5-hydroxymethyl-2-trifluoromethyl-phenyl)-2,5,6,7-tetrahydro-cyclopenta[d]pyridazin-1-one] | < 100 nM
